Where a name gives a salt, the structure may show the parent alone.
Tests used:
Tankyrases = conditions: read-out: EC50 [M] TNKS cellular assay; DLD1 cells, 24 hours, Axin2 increase
TNKS1 = biological target: T1, TNKS1 (Homo sapiens, UniProt O95271); test: TNKS1 activity ELISA (autoparsylation assay); format: biochemical; conditions: GST-tagged Tnks-1 (1023-1327 aa)
T1 construct: GST-tagged Tnks-1 (1023-1327 aa, prepared in-house); made in house
In short: (§1)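 Autoparsylation ELISA: biotinylated NAD serves as co-substrate for plate-bound GST-TNKS1/TNKS2, incubated with test compounds. Readout is HRP luminescence after streptavidin-HRP binding, referenced to the no-inhibitor reaction, from which IC50 values are derived.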

PARP-1 = biological target: T2, PARP-1 (Homo sapiens, UniProt P09874); test: PARP-1 autoparsylation assay (HTRF); format: biochemical; conditions: His-tagged Parp-1, autoparsylation HTRF
T2 construct: purchased Enzo Life Sciences GmbH, Lörrach, Germany
T2 sequence (P09874 whole entry): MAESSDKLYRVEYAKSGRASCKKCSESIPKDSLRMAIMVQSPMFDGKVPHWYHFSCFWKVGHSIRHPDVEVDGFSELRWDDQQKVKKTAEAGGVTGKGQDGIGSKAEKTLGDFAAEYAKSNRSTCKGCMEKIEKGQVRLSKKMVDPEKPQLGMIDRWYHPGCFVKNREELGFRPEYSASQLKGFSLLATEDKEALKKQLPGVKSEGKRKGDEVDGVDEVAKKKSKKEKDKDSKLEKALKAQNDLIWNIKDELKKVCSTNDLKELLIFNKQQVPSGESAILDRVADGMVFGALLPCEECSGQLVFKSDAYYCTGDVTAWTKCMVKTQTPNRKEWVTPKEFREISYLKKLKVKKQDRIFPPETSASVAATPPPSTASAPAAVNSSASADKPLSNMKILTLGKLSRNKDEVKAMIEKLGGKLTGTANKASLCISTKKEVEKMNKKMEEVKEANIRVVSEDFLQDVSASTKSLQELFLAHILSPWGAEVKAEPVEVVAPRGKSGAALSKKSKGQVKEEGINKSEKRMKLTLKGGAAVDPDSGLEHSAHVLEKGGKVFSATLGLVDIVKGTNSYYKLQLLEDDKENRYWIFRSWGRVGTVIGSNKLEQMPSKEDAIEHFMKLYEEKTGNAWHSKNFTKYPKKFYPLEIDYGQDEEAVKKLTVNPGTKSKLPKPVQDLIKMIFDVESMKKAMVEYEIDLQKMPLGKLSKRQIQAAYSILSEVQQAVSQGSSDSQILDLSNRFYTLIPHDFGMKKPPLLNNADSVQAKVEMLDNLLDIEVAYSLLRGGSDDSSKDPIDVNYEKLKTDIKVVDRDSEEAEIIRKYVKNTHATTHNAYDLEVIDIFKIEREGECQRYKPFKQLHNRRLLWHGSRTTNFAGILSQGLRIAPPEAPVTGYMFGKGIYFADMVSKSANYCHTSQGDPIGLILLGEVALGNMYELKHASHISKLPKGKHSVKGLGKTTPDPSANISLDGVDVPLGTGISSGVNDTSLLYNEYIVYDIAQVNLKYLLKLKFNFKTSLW
In short: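 HTRF emission ratio reports biotin-ADP-ribose self-transfer onto His-tagged PARP-1, with biotinylated NAD/NAD as co-substrate, sensed via cryptate anti-His and Xlent-streptavidin.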

TNKS2 = biological target: T3, TNKS2 (Homo sapiens, UniProt Q9H2K2); test: TNKS2 activity ELISA (autoparsylation assay); format: biochemical; conditions: GST-tagged Tnks-2 (873-1166 aa); read-out: IC50 [M] TNKS2 ELISA
T3 construct: GST-tagged Tnks-2 (873-1166 aa, prepared in-house); made in house
T3 sequence (Q9H2K2 873-1166): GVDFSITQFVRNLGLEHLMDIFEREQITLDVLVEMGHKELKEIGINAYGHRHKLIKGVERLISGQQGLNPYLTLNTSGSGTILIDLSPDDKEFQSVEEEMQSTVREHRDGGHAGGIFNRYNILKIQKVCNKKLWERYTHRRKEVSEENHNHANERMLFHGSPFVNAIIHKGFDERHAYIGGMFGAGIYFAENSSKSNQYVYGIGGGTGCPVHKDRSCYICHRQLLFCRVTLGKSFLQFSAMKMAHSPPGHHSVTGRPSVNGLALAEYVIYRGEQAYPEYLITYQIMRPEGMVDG
In short: as §1

T1 sequence (O95271 1023-1327): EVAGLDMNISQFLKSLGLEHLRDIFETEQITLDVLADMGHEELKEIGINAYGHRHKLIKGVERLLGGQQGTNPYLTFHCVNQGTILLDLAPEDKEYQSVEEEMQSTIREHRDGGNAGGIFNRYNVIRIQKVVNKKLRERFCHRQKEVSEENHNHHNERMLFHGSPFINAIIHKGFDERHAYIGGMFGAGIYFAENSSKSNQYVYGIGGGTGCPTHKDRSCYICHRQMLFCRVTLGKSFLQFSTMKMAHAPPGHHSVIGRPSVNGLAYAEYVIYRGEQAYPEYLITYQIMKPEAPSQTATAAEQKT

| SMILES | EC50 (Tankyrases) | IC50 (TNKS1) | IC50 (PARP-1) | IC50 (TNKS2) |
| --- | --- | --- | --- | --- |
| O=C(c1ccc(F)cc1)C1CCN(C(=O)CCCc2nc3c(c(=O)[nH]2)COCC3)CC1 [Compound C198, 2-{4-[4-(4-Fluoro-benzoyl)-piperidin-1-yl]-4-oxo-butyl}-3,5,7,8-tetrahydro-pyrano[4,3-d]pyrimidin-4-one] | 7.5e-08 M | 12 nM | 5200 nM | 4e-09 M |
| CCn1cc(C(=O)C2CCN(C(=O)CCCc3nn4c(C)ccc4c(=O)[nH]3)CC2)cn1 [Compound C222, 2-{4-[4-(1-Ethyl-1H-pyrazole-4-carbonyl)-piperidin-1-yl]-4-oxo-butyl}-7-methyl-3H-pyrrolo[2,1-f][1,2,4]triazin-4-one] | 2.6e-09 M | 0.24 nM | 1200 nM | 2.9e-10 M |
| CCn1cc(C(=O)C2CCN(C(=O)CCCc3nc4c(C)csc4c(=O)[nH]3)CC2)cn1 [Compound C224, 2-{4-[4-(1-Ethyl-1H-pyrazole-4-carbonyl)-piperidin-1-yl]-4-oxo-butyl}-7-methyl-3H-thieno[3,2-d]pyrimidin-4-one trifluoroacetate] | 1.8e-08 M | 0.87 nM | 3100 nM | 7.1e-10 M |
| COc1ccc(C(=O)C2CCN(C(=O)CCCc3cn4c(C)ncc4c(=O)[nH]3)CC2)cn1 [Compound C99, 6-{4-[4-(6-Methoxy-pyridine-3-carbonyl)-piperidin-1-yl]-4-oxo-butyl}-3-methyl-7H-imidazo[1,5-a]pyrazin-8-one] | 1.1e-08 M | 0.37 nM | 6700 nM | 1.1e-08 M |
| COc1ccc(C(=O)C2CCN(C(=O)CCCc3nc4c(c(=O)[nH]3)COCC4)CC2)cc1F [Compound C192, 2-{4-[4-(3-Fluoro-4-methoxy-benzoyl)-piperidin-1-yl]-4-oxo-butyl}-3,5,7,8-tetrahydro-pyrano[4,3-d]pyrimidin-4-one] | 4.9e-08 M | 5.6 nM | 12000 nM | 2.1e-09 M |
| Cn1ccc2c(=O)[nH]c(CCCC(=O)N3CCC(c4cnc(N)c(-c5ncccn5)c4)CC3)nc21 [Compound C183, 2-[4-(6-Amino-5-pyrimidin-2-yl-3′,4′,5′,6′-tetrahydro-2′H-[3,4′]bipyridinyl-1′-yl)-4-oxo-butyl]-7-methyl-3,7-dihydro-pyrrolo[2,3-d]pyrimidin-4-one] | 1e-08 M | 0.54 nM | 1600 nM | 2.9e-10 M |
| Cc1csc2c(=O)[nH]c(CCCC(=O)N3CCC(C(=O)c4ccc(F)cc4)CC3)nc12 [Compound C131, 2-{4-[4-(4-Fluorobenzoyl)-1-piperidyl]-4-oxo-butyl}-7-methyl-3H-thieno[3,2-d]pyrimidin-4-one] | 1.6e-08 M | 0.36 nM | 270 nM | 2.1e-10 M |
| Cc1ccc2c(=O)[nH]c(CCCC(=O)N3CCC(c4cnc(N)c(C#N)c4)CC3)nn12 [Compound C149, 6-Amino-1′-[4-(7-methyl-4-oxo-3,4-dihydro-pyrrolo[2,1-f][1,2,4]triazin-2-yl)-butyryl]-1′,2′,3′,4′,5′,6′-hexahydro-[3,4′]bipyridinyl-5-carbonitrile] | 3.1e-09 M | 0.38 nM | 770 nM | 3.8e-10 M |
| Cn1cc(C(=O)C2CCN(C(=O)CCCc3nc4c(c(=O)[nH]3)COCC4)CC2)cn1 [Compound C202, 2-{4-[4-(1-Methyl-1H-pyrazole-4-carbonyl)-piperidin-1-yl]-4-oxo-butyl}-3,5,7,8-tetrahydro-pyrano[4,3-d]pyrimidin-4-one] | 2.2e-06 M | 8.1 nM | 18000 nM | 3.1e-09 M |
| Cc1cc2c(=O)[nH]c(CCCC(=O)N3CCC(c4cnc(N)c(C#N)c4)CC3)nn2c1 [Compound C160, 6-Amino-1′-[4-(6-methyl-4-oxo-3,4-dihydro-pyrrolo[2,1-f][1,2,4]triazin-2-yl)-butyryl]-1′,2′,3′,4′,5′,6′-hexahydro-[3,4′]bipyridinyl-5-carbonitrile] | 4.9e-08 M | 1.8 nM | 3300 nM | 1e-08 M |
| Cn1ncc2c(=O)[nH]c(CCCC(=O)N3CCC(c4cnc(N)c(C#N)c4)CC3)nc21 [Compound C44, 6-Amino-1′-[4-(1-methyl-4-oxo-4,5-dihydro-1H-pyrazolo[3,4-d]pyrimidin-6-yl)-butyryl]-1′,2′,3′,4′,5′,6′-hexahydro-[3,4′]bipyridinyl-5-carbonitrile] | 4e-07 M | 1.6 nM | 18000 nM | 9.7e-10 M |
| Cn1ccc2c(=O)[nH]c(CCCC(=O)N3CCC(C(=O)c4ccc(C(C)(F)F)cc4)CC3)nc21 [Compound C249, 2-(4-{4-[4-(1,1-Difluoro-ethyl)-benzoyl]-piperidin-1-yl}-4-oxo-butyl)-7-methyl-3,7-dihydro-pyrrolo[2,3-d]pyrimidin-4-one] | 1.8e-09 M | 0.42 nM | 1100 nM | 1.2e-10 M |
| Cc1scc2c(=O)[nH]c(CCCC(=O)N3CCC(C(=O)c4ccc(C(C)(C)O)cc4)CC3)nc12 [Compound C121, 2-(4-{4-[4-(1-Hydroxy-1-methyl-ethyl)-benzoyl]-piperidin-1-yl}-4-oxo-butyl)-7-methyl-3H-thieno[3,4-d]pyrimidin-4-one] | 6.8e-08 M | 4.7 nM | 3100 nM | 2.4e-09 M |
| COc1ccc(C(=O)C2CCN(C(=O)CCCc3nc4c(C)csc4c(=O)[nH]3)CC2)cc1F [Compound C55, 2-{4-[4-(3-Fluoro-4-methoxy-benzoyl)-piperidin-1-yl]-4-oxo-butyl}-7-methyl-3H-thieno[3,2-d]pyrimidin-4-one] | 1.9e-09 M | 0.18 nM | 400 nM | 1.2e-10 M |
| COc1ccc(C(=O)C2CCN(C(=O)CCCc3nn4c(C)ccc4c(=O)[nH]3)CC2)cc1 [Compound C37, 2-{4-[4-(4-Methoxybenzoyl)-piperidin-1-yl]-4-oxo-butyl}-7-methyl-3H-pyrrolo[2,1-f][1,2,4]triazin-4-one] | 1e-09 M | < 0.1 nM | 620 nM | < 1e-10 M |
| CCn1cc(C(=O)C2CCN(C(=O)CCCc3nn4cc(F)cc4c(=O)[nH]3)CC2)cn1 [Compound C215, 2-{4-[4-(1-Ethyl-1H-pyrazole-4-carbonyl)-piperidin-1-yl]-4-oxo-butyl}-6-fluoro-3H-pyrrolo[2,1-f][1,2,4]triazin-4-one] | 1.8e-08 M | 1.5 nM | 5000 nM | 1.4e-09 M |
| COc1ccc(C(=O)C2CCN(C(=O)CCCc3nc4c(c(=O)[nH]3)COCC4)CC2)cn1 [Compound C193, 2-{4-[4-(6-Methoxy-pyridine-3-carbonyl)-piperidin-1-yl]-4-oxo-butyl}-3,5,7,8-tetrahydro-pyrano[4,3-d]pyrimidin-4-one] | 1e-07 M | 7.4 nM | 8000 nM | 2.6e-09 M |
| Cn1ccc2c(=O)[nH]c(CCCC(=O)N3CCC(c4nnc(-c5ccccc5)o4)CC3)nc21 [Compound C184, 7-Methyl-2-{4-oxo-4-[4-(5-phenyl-[1,3,4]oxadiazol-2-yl)-piperidin-1-yl]-butyl}-3,7-dihydro-pyrrolo[2,3-d]pyrimidin-4-one] | 4.7e-07 M | 4.7 nM | 1900 nM | 2.5e-09 M |
